In patent publication US20220144815A1, “1,3,4-OXADIAZOLES AND THEIR DERIVATIVES AS NEW ANTIFUNGAL AGENTS” (Bayer Aktiengesellschaft, priority 2018, published 2022):
Like-named read-outs stand apart in the source and are kept apart here.

Assays:
[1] = tested on: Botrytis cinerea; experiment: Example C: in vivo preventive test (grey mould) on gherkin or cabbage; settings: 500 ppm of active ingredient, preventive spray, evaluated 4 to 5 days after inoculation, read-out: efficacy
Procedure: Solvent: 5% by volume of dimethyl sulfoxide • 10% by volume of acetone Emulsifier: 1 μl of Tween® 80 per mg of active ingredient The tested compounds were made soluble and homogenized in a mixture of dimethyl sulfoxide/acetone/Tween® 80 and then diluted in water to the desired concentration. The young plants of gherkin or cabbage were treated by spraying the tested compound prepared as described above. Control plants were treated only with an aqueous solution of acetone/dimethyl sulfoxide/Tween® 80. After 24 hours, the plants were contaminated by spraying the leaves with an aqueous suspension of Botrytis cinerea spores. The contaminated gherkin plants were incubated for 4 to 5 days at 17° C. and at 90% relative humidity. The contaminated cabbage plants were incubated for 4 to 5 days at 20° C. and at 100% relative humidity. The test was evaluated 4 to 5 days after the inoculation. 0% means an efficacy which corresponds to that of the control plants while an efficacy of 100% means that no disease was observed.

[2] = tested on: Colletotrichum lindemuthianum; experiment: Example B: in vitro cell test, spore germination and mycelium growth in liquid culture; format: cell-based; settings: 144 h, 20 ppm of tested compound, 6 days incubation, read-out: efficacy (inhibition of fungal growth)
How it was run: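 Compounds in DMSO (final ≤1%) added to glucose/peptone/yeast extract liquid medium containing C. lindemuthianum spores. After 6 days incubation, mycelium growth measured spectrometrically; inhibition calculated from absorbance versus compound-free control wells.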

[3] = tested on: Alternaria brassicae; experiment: Example E: in vivo preventive test (cabbage); settings: 144 h, 500 ppm of tested compound, preventive spray, evaluated 6 days after inoculation, read-out: efficacy
Procedure: Solvent: 5% by volume of dimethyl sulfoxide • 10% by volume of acetone Emulsifier: 1 μL of Tween® 80 per mg of active ingredient The tested compounds were made soluble and homogenized in a mixture of Dimethyl sulfoxide/Acetone/Tween® 80 and then diluted in water to the desired concentration. The young plants of cabbage were treated by spraying the tested compound prepared as described above. Control plants were treated only with an aqueous solution of Acetone/Dimethyl sulfoxide/Tween® 80. After 24 hours, the plants were contaminated by spraying the leaves with an aqueous suspension of Alternaria brassicae spores. The contaminated cabbage plants were incubated for 6 days at 20° C. and at 100% relative humidity. The test was evaluated 6 days after the inoculation. 0% means an efficacy which corresponds to that of the control plants while an efficacy of 100% means that no disease was observed.

[4] = Log P by HPLC on reversed phase columns, method [a] (EEC directive 79/831 Annex V.A8); format: physicochemical; settings: reversed phase HPLC column
How it was run: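 Reversed-phase HPLC with LC-UV detection per EEC directive 79/831 Annex V.A8, acidic eluent of 0.1% formic acid in water and acetonitrile, linear gradient 10% to 95% acetonitrile. Log P derived from retention times, calibrated against straight-chain alkan-2-ones (C3–C16) by linear interpolation.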

[5] = tested on: Phakopsora pachyrhizi; experiment: Example F: in vivo preventive test (soybeans), DMSO/acetone/Tween 80; settings: 288 h, 500 ppm of tested compound, preventive spray, soybean, evaluated 12 days after inoculation, read-out: efficacy
Procedure: Solvent: 5% by volume of dimethyl sulfoxide • 10% by volume of acetone
Emulsifier: 1 μL of Tween® 80 per mg of active ingredient
The tested compounds were made soluble and homogenized in a mixture of dimethyl sulfoxide/acetone/Tween® 80 and then diluted in water to the desired concentration.
The young plants of wheat were treated by spraying the tested compound prepared as described above. Control plants were treated only with an aqueous solution of acetone/dimethyl sulfoxide/Tween® 80.
After 24 hours, the plants were contaminated by spraying the leaves with an aqueous suspension of Phakospora pachyrhizi spores. The contaminated soybean plants were incubated for 24 hours at 24° C. and at 100% relative humidity and then for 11 days at 24° C. and at 70-80% relative humidity.
The test was evaluated 12 days after the inoculation. 0% means an efficacy which corresponds to that of the control plants while an efficacy of 100% means that no disease was observed.

[6] = tested on: Puccinia recondita; experiment: Example D: in vivo preventive test (brown rust on wheat); settings: 264 h, 500 ppm of tested compound, preventive spray, evaluated 11 days after inoculation, read-out: efficacy
Procedure: Solvent: 5% by volume of dimethyl sulfoxide • 10% by volume of acetone Emulsifier: 1 μL of Tween® 80 per mg of active ingredient The tested compounds were made soluble and homogenized in a mixture of dimethyl sulfoxide/acetone/Tween® 80 and then diluted in water to the desired concentration. The young plants of wheat were treated by spraying the tested compound prepared as described above. Control plants were treated only with an aqueous solution of acetone/dimethyl sulfoxide/Tween® 80. After 24 hours, the plants were contaminated by spraying the leaves with an aqueous suspension of Puccinia recondita spores. The contaminated wheat plants were incubated for 24 hours at 20° C. and at 100% relative humidity and then for 10 days at 20° C. and at 70-80% relative humidity. The test was evaluated 11 days after the inoculation. 0% means an efficacy which corresponds to that of the control plants while an efficacy of 100% means that no disease was observed.

[7] = log P determined according to method [a] (HPLC on reversed phase columns), read-out: logP

| SMILES | chromatographic logP [4, 7] | pest or weed control at 500 ppm [1] [%] | pest or weed control at 500 µg/mL [3] [%] | further results |
| --- | --- | --- | --- | --- |
| Fc1ccc(-c2ncc(-c3nnc(C(F)F)o3)cn2)cc1 [I.077, 5-[5-(difluoromethyl)-1,3,4-oxadiazol-2-yl]-2-(4-fluorophenyl)pyrimidine] |  | 70 to 79 |  | inhibition of growth at 20 µg/mL [2]: 90 to 100% |
| Fc1ccccc1Nc1ccc(-c2nnc(C(F)(F)Cl)o2)cn1 [I.053, 5-{5-[chloro(difluoro)methyl]-1,3,4-oxadiazol-2-yl}-N-(2-fluorophenyl)pyridin-2-amine] |  | 80 to 89 |  |  |
| CC(=O)Nc1ccc(-c2nnc(C(F)F)o2)cn1 [I.034, N-{5-[5-(difluoromethyl)-1,3,4-oxadiazol-2-yl]pyridin-2-yl}acetamide] |  | 80 to 89 |  |  |
| O=C(Cc1ccccc1)Nc1ccc(-c2nnc(C(F)F)o2)cn1 [I.050, N-{5-[5-(difluoromethyl)-1,3,4-oxadiazol-2-yl]pyridin-2-yl}-2-phenylacetamide] |  | 80 to 89 |  |  |
| CC1(C(=O)Nc2ccc(-c3nnc(C(F)F)o3)cn2)CC1 [I.045, N-{5-[5-(difluoromethyl)-1,3,4-oxadiazol-2-yl]pyridin-2-yl}-1-methylcyclopropanecarboxamide] |  | 90 to 100 | 90 to 100 |  |
| FC(F)c1nnc(-c2cnc(Nc3ccccc3)nc2)o1 [I.076, 5-[5-(difluoromethyl)-1,3,4-oxadiazol-2-yl]-N-phenylpyrimidin-2-amine] |  | 90 to 100 | 90 to 100 |  |
| Nc1ccc(-c2nnc(C(F)F)o2)cn1 [I.030, 5-[5-(difluoromethyl)-1,3,4-oxadiazol-2-yl]pyridin-2-amine] |  | 80 to 89 |  |  |
| FC(F)c1nnc(-c2cnc(NC3(C4(c5ccccc5)CC4)CC3)nc2)o1 [I.170, 5-[5-(difluoromethyl)-1,3,4-oxadiazol-2-yl]-N-[1′-phenyl[1,1′-bi(cyclopropyl)]-1-yl]pyrimidin-2-amine] |  | 70 to 79 | 90 to 100 | chromatographic logP ([4]; method [a], HPLC on reversed phase columns, read-out: logP): 3.64 |
| CC(C)(Nc1ncc(-c2nnc(C(F)F)o2)cn1)c1ccc(F)cc1 [I.150, 5-[5-(difluoromethyl)-1,3,4-oxadiazol-2-yl]-N-[2-(4-fluorophenyl)propan-2-yl]pyrimidin-2-amine] |  |  | 70 to 79 | pest or weed control at 500 µg/mL [5]: 90 to 100%; pest or weed control at 500 µg/mL [6]: 90 to 100%; chromatographic logP ([4]; Method A: LC-UV, acidic range, 0.1% formic acid in water and acetonitrile, read-out: Log P): 3.26; inhibition of growth at 20 µg/mL [2]: 80 to 89% |

Now from value to compound, other results behind:

| chromatographic logP [4, 7] | SMILES | pest or weed control at 500 ppm [1] [%] | pest or weed control at 500 µg/mL [3] [%] | further results |
| --- | --- | --- | --- | --- |
| 3.72 | CC(Sc1ncc(-c2nnc(C(F)F)o2)cn1)c1ccccc1 (racemic) [I.123, 5-[5-(difluoromethyl)-1,3,4-oxadiazol-2-yl]-2-{[(1RS)-1-phenylethyl]sulfanyl}pyrimidine] | 90 to 100 |  | inhibition of growth at 20 µg/mL [2]: 90 to 100% |
| 2.62 | COc1ccc(C2(Nc3ncc(-c4nnc(C(F)F)o4)cn3)CC2)cc1 [I.157, 5-[5-(difluoromethyl)-1,3,4-oxadiazol-2-yl]-N-[1-(4-methoxyphenyl)cyclopropyl]pyrimidin-2-amine] |  | 70 to 79 | pest or weed control at 500 µg/mL [5]: 90 to 100%; pest or weed control at 500 µg/mL [6]: 90 to 100%; inhibition of growth at 20 µg/mL [2]: 80 to 89% |
| 3.57 | FC(F)c1nnc(-c2cnc(NC3(c4ccccc4)CCCC3)nc2)o1 [I.153, 5-[5-(difluoromethyl)-1,3,4-oxadiazol-2-yl]-N-(1-phenylcyclopentyl)pyrimidin-2-amine] | 70 to 79 |  |  |
| 2.99 | Fc1ccccc1Nc1ncc(-c2nnc(C(F)(F)F)o2)cn1 [I.116, N-(2-fluorophenyl)-5-[5-(trifluoromethyl)-1,3,4-oxadiazol-2-yl]pyrimidin-2-amine] | 80 to 89 |  |  |
| 2.97 | COc1ccccc1CN(OC)c1ncc(-c2nnc(C(F)F)o2)cn1 [I.161, N-{5-[5-(difluoromethyl)-1,3,4-oxadiazol-2-yl]pyrimidin-2-yl}-N-(2-methoxybenzyl)-O-methylhydroxylamine] | 70 to 79 |  |  |
